This note sets out measurements from patent US10370336B2, “Phenyl-cyanoquinolinone PDE9 inhibitors” (Merck Sharp & Dohme Corp., priority 2015, dated 2019).

For the test, the target named is human PDE9 enzyme (PDE9A2) (Homo sapiens (Human), UniProt O76083). Particulars: read-out: PDE9 IMAP Ki; IMAP FP assay, FAM-cGMP substrate 50 nM, apparent inhibition constant.

Molecules are shown by their SMILES.

Sequence of human PDE9 enzyme (PDE9A2) (O76083 other isoform, or with tags, fused parts or gaps): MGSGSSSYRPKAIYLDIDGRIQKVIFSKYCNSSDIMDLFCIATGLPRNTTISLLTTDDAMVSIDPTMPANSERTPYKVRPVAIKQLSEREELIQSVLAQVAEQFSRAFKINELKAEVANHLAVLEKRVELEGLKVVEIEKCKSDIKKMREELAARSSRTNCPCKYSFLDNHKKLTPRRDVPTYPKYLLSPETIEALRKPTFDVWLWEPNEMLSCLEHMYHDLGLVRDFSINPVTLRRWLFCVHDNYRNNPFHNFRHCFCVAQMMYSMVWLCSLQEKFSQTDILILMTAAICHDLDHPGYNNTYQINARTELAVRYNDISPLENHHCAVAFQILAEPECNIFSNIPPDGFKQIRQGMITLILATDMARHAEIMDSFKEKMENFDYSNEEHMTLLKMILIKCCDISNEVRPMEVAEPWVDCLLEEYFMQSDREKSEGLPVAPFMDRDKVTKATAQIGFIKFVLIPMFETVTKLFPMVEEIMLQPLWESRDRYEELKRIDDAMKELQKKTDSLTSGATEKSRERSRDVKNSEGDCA
Text: Dose-inhibition profiles for each compound were characterized by fitting the mP data to a four-parameter equation given below.

As for `Cc1ccc(-c2c(C#N)c(=O)[nH]c3ccccc23)cc1` [Example 1-9, 2-oxo-4-(p-tolyl)-1H-quinoline-3-carbonitrile], the Ki was determined as 8.9 nM.
